Where only a bound is given, the exact number is not on record here.

Chain of Human Factor D (P00746 26-253): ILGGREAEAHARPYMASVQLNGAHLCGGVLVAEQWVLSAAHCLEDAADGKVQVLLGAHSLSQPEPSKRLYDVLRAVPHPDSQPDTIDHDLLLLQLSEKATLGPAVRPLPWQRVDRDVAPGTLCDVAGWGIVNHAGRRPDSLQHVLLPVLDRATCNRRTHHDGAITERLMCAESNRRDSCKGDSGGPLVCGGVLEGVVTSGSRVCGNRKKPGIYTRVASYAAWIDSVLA

The first assay addresses Human Factor D (Homo sapiens (Human), UniProt P00746). Description: Human Factor D Assay. The format is biochemical.
Conditions: not given
The procedure, abridged:
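IC50 values derive from nonlinear regression of Factor D reaction rates against compound concentration. The enzyme, purified from human serum, is used at 80 nM final with a 5 min room-temperature compound preincubation in 50 mM Tris, 1M NaCl, pH 7.5, before 100 μM Z-L-Lys-SBzl plus 100 μM DTNB are added.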
For the molecule `Cc1cccc(NC(=O)[C@@H]2[C@H]3CC[C@H](C3)N2C(=O)Cn2cc(C(N)=O)c3cc(-c4n[nH]c5ccsc45)ccc32)n1` [Compound 704, 1-(2-((1R,3S,4S)-3-((6-Methylpyridin-2-yl)carbamoyl)-2-azabicyclo[2.2.1]heptan-2-yl)-2-oxoethyl)-5-(1H-thieno[3,2-c]pyrazol-3-yl)-1H-indole-3-carboxamide], the IC50 is above 10 µM.

The same assay, now with this note: Human Factor D, Table 3; read-out: IC50.
As for `CC(=O)c1nn(CC(=O)N2C[C@H](F)C[C@H]2C(=O)Nc2cccc(Br)n2)c2ccc(-c3cnc4cc(C(F)(F)F)nn4c3)cc12` [Compound 684, (2S,4R)-1-(2-(3-Acetyl-5-(2-(trifluoromethyl)pyrazolo[1,5-a]pyrimidin-6-yl)-1H-indazol-1-yl)acetyl)-N-(6-bromopyridin-2-yl)-4-fluoropyrrolidine-2-carboxamide], the half-inhibitory concentration (IC50) was below 1 µM.
Regarding `CC(=O)c1cn(CC(=O)N2C[C@H](F)C[C@H]2C(=O)NCc2ccccc2)c2ccc(-c3cnc4cc(C)nn4c3)cc12` [Compound 685, (2S,4R)-1-(2-(3-Acetyl-5-(2-methylpyrazolo[1,5-a]pyrimidin-6-yl)-1H-indol-1-yl)acetyl)-N-benzyl-4-fluoropyrrolidine-2-carboxamide], the IC50 was below 1 µM.
`CC(=O)c1cn(CC(=O)N2C[C@H](F)C[C@H]2C(=O)NCCc2ccccc2)c2ccc(-c3cnc4cc(C)nn4c3)cc12` [Compound 686, (2S,4R)-1-(2-(3-Acetyl-5-(2-methylpyrazolo[1,5-a]pyrimidin-6-yl)-1H-indol-1-yl)acetyl)-4-fluoro-N-phenethylpyrrolidine-2-carboxamide]: the IC50 was below 1 µM.
On to `CC(=O)c1cn(CC(=O)N2C[C@H](F)C[C@H]2C(=O)NCCCc2ccccc2)c2ccc(-c3cnc4cc(C)nn4c3)cc12` [Compound 687, (2S,4R)-1-(2-(3-Acetyl-5-(2-methylpyrazolo[1,5-a]pyrimidin-6-yl)-1H-indol-1-yl)acetyl)-4-fluoro-N-(3-phenylpropyl)pyrrolidine-2-carboxamide], for which the IC50 is below 1 µM.
Turning to `CC(=O)c1cn(CC(=O)N2C[C@H](F)C[C@H]2C(=O)NCCCCc2ccccc2)c2ccc(-c3cnc4cc(C)nn4c3)cc12` [Compound 688, (2S,4R)-1-(2-(3-Acetyl-5-(2-methylpyrazolo[1,5-a]pyrimidin-6-yl)-1H-indol-1-yl)acetyl)-4-fluoro-N-(4-phenylbutyl)pyrrolidine-2-carboxamide], the IC50 is below 1 µM.
On the same count and under the same terms, the figure for `CC(=O)c1nn(CC(=O)N2C[C@H](F)C[C@H]2C(=O)Nc2cccc(Br)n2)c2ccc(-c3cnn4c3CCC4)cc12` [Compound 693, (2S,4R)-1-(2-(3-Acetyl-5-(5,6-dihydro-4H-pyrrolo[1,2-b]pyrazol-3-yl)-1H-indazol-1-yl)acetyl)-N-(6-bromopyridin-2-yl)-4-fluoropyrrolidine-2-carboxamide] is below 1 µM; for `Cc1cccc(NC(=O)[C@@H]2[C@H]3CC[C@H](C3)N2C(=O)Cn2cc(C(N)=O)c3cc(-c4cnc5ncccn45)ccc32)n1` [Compound 695, 5-(Imidazo[1,2-a]pyrimidin-3-yl)-1-(2-((1R,3S,4S)-3-(6-methylpyridin-2-ylcarbamoyl)-2-azabicyclo[2.2.1]heptan-2-yl)-2-oxoethyl)-1H-indole-3-carboxamide] it is above 10 µM; for `CC(=O)c1nn(CC(=O)N2C[C@H](F)C[C@H]2C(=O)Nc2cccc(Br)n2)c2ccc(-c3cnn(-c4ncccn4)c3)cc12` [Compound 696, (2S,4R)-1-(2-(3-Acetyl-5-(1-(pyrimidin-2-yl)-1H-pyrazol-4-yl)-1H-indazol-1-yl)acetyl)-N-(6-bromopyridin-2-yl)-4-fluoropyrrolidine-2-carboxamide] it is below 1 µM.
As for `Cc1cccc(NC(=O)[C@@H]2[C@H]3CC[C@H](C3)N2C(=O)Cn2cc(C(N)=O)c3cc(-c4cnc5n4CCCC5)ccc32)n1` [Compound 698, 1-(2-((1R,3S,4S)-3-(6-Methylpyridin-2-ylcarbamoyl)-2-azabicyclo[2.2.1]heptan-2-yl)-2-oxoethyl)-5-(5,6,7,8-tetrahydroimidazo[1,2-a]pyridin-3-yl)-1H-indole-3-carboxamide], the IC50 is above 10 µM.
Regarding `CC(=O)c1nn(CC(=O)N2C[C@H](F)C[C@H]2C(=O)Nc2cccc(Br)n2)c2ccc(-c3cnn(-c4ncc(F)cn4)c3)cc12` [Compound 699, (2S,4R)-1-(2-(3-Acetyl-5-(1-(5-fluoropyrimidin-2-yl)-1H-pyrazol-4-yl)-1H-indazol-1-yl)acetyl)-N-(6-bromopyridin-2-yl)-4-fluoropyrrolidine-2-carboxamide], the IC50 was below 1 µM.
As for `CC(=O)c1cn(CCN2C[C@H](F)C[C@H]2C(=O)Nc2cccc(OC(F)(F)F)c2F)c2ccc(-c3cnc4cc(C)nn4c3)cc12` [Compound 701, (2S,4R)-1-(2-(3-Acetyl-5-(2-methylpyrazolo[1,5-a]pyrimidin-6-yl)-1H-indol-1-yl)ethyl)-4-fluoro-N-(2-fluoro-3-(trifluoromethoxy)phenyl)pyrrolidine-2-carboxamide], the IC50 is above 10 µM.
For `CC(=O)c1nn(CC(=O)N2C[C@H](F)C[C@H]2C(=O)Nc2cccc(Br)n2)c2ccc(-c3cnc(=O)n(C)c3)cc12` [Compound 702, (2S,4R)-1-(2-(3-Acetyl-5-(1-methyl-2-oxo-1,2-dihydropyrimidin-5-yl)-1H-indazol-1-yl)acetyl)-N-(6-bromopyridin-2-yl)-4-fluoropyrrolidine-2-carboxamide], the IC50 is below 1 µM.
For the molecule `CC(=O)c1nn(CC(=O)N2CC[C@H]2C(=O)Nc2cccc(C)n2)c2ccc(-c3cnc4n3CCCC4)cc12` [Compound 705, (S)-1-(2-(3-Acetyl-5-(5,6,7,8-tetrahydroimidazo[1,2-a]pyridin-3-yl)-1H-indazol-1-yl)acetyl)-N-(6-methylpyridin-2-yl)azetidine-2-carboxamide], the IC50 was above 10 µM.
The same measure, in the same setting: the figure for `CC(=O)c1nn(CC(=O)N2C[C@H](F)C[C@H]2C(=O)Nc2cccc(Br)n2)c2ccc(-c3cnn(C4CC4)c3)cc12` [Compound 706, (2S,4R)-1-(2-(3-Acetyl-5-(1-cyclopropyl-1H-pyrazol-4-yl)-1H-indazol-1-yl)acetyl)-N-(6-bromopyridin-2-yl)-4-fluoropyrrolidine-2-carboxamide] is below 1 µM; for `CC(=O)c1nn(CC(=O)N2C[C@H](F)C[C@H]2C(=O)Nc2cccc(Br)n2)c2ccc(-c3cn[nH]c3)cc12` [Compound 707, (2S,4R)-1-(2-(3-acetyl-5-(1H-pyrazol-4-yl)-1H-indazol-1-yl)acetyl)-N-(6-bromopyridin-2-yl)-4-fluoropyrrolidine-2-carboxamide] it is below 1 µM; for `CC(=O)c1nn(CC(=O)N2CCC[C@H]2C(=O)Nc2cccc(C)n2)c2ccc(-c3cnc4ncccn34)cc12` [Compound 708, (S)-1-(2-(3-Acetyl-5-(imidazo[1,2-a]pyrimidin-3-yl)-1H-indazol-1-yl)acetyl)-N-(6-methylpyridin-2-yl)pyrrolidine-2-carboxamide] it is below 1 µM.
Consider `CC(=O)c1nn(CC(=O)N2CC[C@H]2C(=O)Nc2cccc(C)n2)c2ccc(-c3cnc4ncccn34)cc12` [Compound 709, (S)-1-(2-(3-Acetyl-5-(imidazo[1,2-a]pyrimidin-3-yl)-1H-indazol-1-yl)acetyl)-N-(6-methylpyridin-2-yl)azetidine-2-carboxamide], for which the IC50 is below 1 µM.
Take `CC(=O)n1cc(CC(=O)N2C[C@H](F)C[C@H]2C(=O)Nc2cccc(-c3ccccc3Cl)c2F)c2ccc(-c3cnc(C)nc3)cc21` [Compound 710, (2S,4R)-1-(2-(1-Acetyl-6-(2-methylpyrimidin-5-yl)-1H-indol-3-yl)acetyl)-N-(2′-chloro-2-fluoro-[1,1′-biphenyl]-3-yl)-4-fluoropyrrolidine-2-carboxamide]: the IC50 is below 1 µM.
With `CC(=O)n1cc(CC(=O)N2C[C@H](F)C[C@H]2C(=O)Nc2cccc(Br)n2)c2ccc(-c3cnc(C)nc3)cc21` [Compound 711, (2S,4R)-1-(2-(1-Acetyl-6-(2-methylpyrimidin-5-yl)-1H-indol-3-yl)acetyl)-N-(6-bromopyridin-2-yl)-4-fluoropyrrolidine-2-carboxamide], the concentration for half-maximal inhibition (IC50) was below 1 µM.
As to `Cc1cccc(NC(=O)[C@@H]2C[C@@H](F)CN2C(=O)Cn2nc(C(N)=O)c3sc(-c4cnc5cc(C)nn5c4)nc32)n1` [Compound 714, 1-(2-((2S,4R)-4-Fluoro-2-(6-methylpyridin-2-ylcarbamoyl)pyrrolidin-1-yl)-2-oxoethyl)-5-(2-methylpyrazolo[1,5-a]pyrimidin-6-yl)-1H-pyrazolo[3,4-d]thiazole-3-carboxamide], the IC50 is above 10 µM.
As for `Cc1cccc(NC(=O)[C@@H]2C[C@@H](F)CN2C(=O)Cn2nc(C(N)=O)c3sc(-c4cnc(C)nc4)nc32)n1` [Compound 715, 1-(2-((2S,4R)-4-Fluoro-2-(6-methylpyridin-2-ylcarbamoyl)pyrrolidin-1-yl)-2-oxoethyl)-5-(2-methylpyrimidin-5-yl)-1H-pyrazolo[3,4-d]thiazole-3-carboxamide], the IC50 was above 10 µM.
`CC(=O)c1ccc(Cl)c(-c2cccc(NC(=O)[C@@H]3C[C@H]4C[C@H]4N3C(=O)Cn3nc(C(N)=O)c4sc(-c5cnc6cc(C)nn6c5)nc43)c2F)c1` [Compound 716, 1-(2-((1R,3S,5R)-3-(5′-Acetyl-2′-chloro-2-fluorobiphenyl-3-ylcarbamoyl)-2-azabicyclo[3.1.0]hexan-2-yl)-2-oxoethyl)-5-(2-methylpyrazolo[1,5-a]pyrimidin-6-yl)-1H-pyrazolo[3,4-d]thiazole-3-carboxamide]: the IC50 is below 1 µM.
For the molecule `CC(=O)c1ccc(Cl)c(-c2cccc(NC(=O)[C@@H]3C[C@H]4C[C@H]4N3C(=O)Cn3nc(C(N)=O)c4sc(-c5cnc(C)nc5)nc43)c2F)c1` [Compound 717, 1-(2-((1R,3S,5R)-3-(5′-Acetyl-2′-chloro-2-fluorobiphenyl-3-ylcarbamoyl)-2-azabicyclo[3.1.0]hexan-2-yl)-2-oxoethyl)-5-(2-methylpyrimidin-5-yl)-1H-pyrazolo[3,4-d]thiazole-3-carboxamide], the IC50 is below 1 µM.

As usually defined, the IC50 is the concentration needed to halve the response being measured.

These data come from US10287301B2 (Achillion Pharmaceuticals, Inc., priority 2015, dated 2019).
